Experimental data from US20040029134A1, “P53-associated Parkin-like cytoplasmic protein, and related compositions and methods” (priority 2002, published 2004).

Tested on: Parc-overexpressing (Flag-Parc/U2OS) cells
Assay: Subcellular p53 localization by immunofluorescent staining (anti-p53 1801)
Format: cell-based, human
Conditions: etoposide 1 μM for 6 hours
From the text: FIGS. 10A and 10B Parc over-expression abrogates stress-induced nuclear localization of endogenous p53 in U2OS cells. […] The etoposide-treated cells were immunostained with anti-p53 antibody (1801) (visualized by fluorescence) and counterstained with DAPI to visualize the nuclei. (B) Quantification of subcellular p53 localization in parental U2OS and in Parc-overexpressing (Flag-Parc/U2OS) cell lines after the cells were immunostained with the anti-p53 antibody (1801).
For the p53 cytoplasmic sequestration assay, cells were transfected with 30 ng/well CMV-p53 and 150 ng/well CMV-Parc. 24 hours post-transfection cells were fixed with 4% paraformaldehyde for 20 min. on ice, rehydrated for 5 min in serum-free DMEM and permeabilized with 0.2% Triton X100 (Fisher) for 10 min on ice. Cells were incubated in 1% bovine serum albumin (BSA) (Sigma)/Phosphate Buffered Salt solution (PBS) (Cellgro) for 30 min. Primary p53-specific monoclonal (for endogenous p53 immunostaining) (DO-1, 1801, Santa Cruz) or polyclonal (for transfected p53 immunostaining) (FL-393, Santa Cruz) antibodies or anti-Flag monoclonal antibody (for transfected Flag-Parc and Flag-Myc immunostaining) (Santa Cruz) were added in 1% BSA/PBS for 45 min at room temperature. […]

In the case of `COc1cc([C@@H]2c3cc4c(cc3[C@@H](O[C@@H]3O[C@@H]5CO[C@@H](C)O[C@H]5[C@H](O)[C@H]3O)[C@H]3COC(=O)[C@H]23)OCO4)cc(OC)c1O` [etoposide], the “cells with nuclear p53 staining” value is reported as “less than 30%”.
